Data on 12 compounds can be found in ChEMBL document CHEMBL3714749, “Quinoxaline derivatives as gpr6 modulators” (2014).

As usually defined, the inhibition in vivo is the drop in the measured response relative to a control, in per cent. By pIC50 is commonly meant the negative decadic logarithm of the IC50, by convention in mol/L.

Molecules are shown by their SMILES. pIC50: −log10 of the molar value.

One test relates to Rattus norvegicus. Briefly: Reversal of haloperidol-induced catalepsy in Sprague-Dawley rat at 10 mg/kg, sc after 120 mins relative to control. The format is functional. Particulars: 2 h.
Regarding `N#Cc1ccc2nc(NC3CC3)c(N3CCC(Cc4ccc(F)cc4F)CC3)nc2c1`, the inhibition in vivo at 10 mg/kg turned out to be 25.1%.

The next test concerns Rattus norvegicus. Put plainly: Reversal of haloperidol-induced catalepsy in Sprague-Dawley rat at 10 mg/kg, sc after 30 mins relative to control. The format is functional. The conditions noted are these: 0.5 h.
Turning to `N#Cc1ccc2nc(NC3CC3)c(N3CCC(Cc4ccc(F)cc4F)CC3)nc2c1`, the inhibition in vivo at 10 mg/kg is 36.9%.

In the next test the target is G-protein coupled receptor 6 (Homo sapiens, UniProt P46095). Put plainly: Activity at GPR6 (unknown origin) expressed in CHOK1 cells assessed as inhibition of constitutive cAMP activity incubated for 45 mins by HTRF based cAMP detection assay. The format is functional, cell-based, CHO-K1.
G-protein coupled receptor 6, sequence (P46095 whole entry): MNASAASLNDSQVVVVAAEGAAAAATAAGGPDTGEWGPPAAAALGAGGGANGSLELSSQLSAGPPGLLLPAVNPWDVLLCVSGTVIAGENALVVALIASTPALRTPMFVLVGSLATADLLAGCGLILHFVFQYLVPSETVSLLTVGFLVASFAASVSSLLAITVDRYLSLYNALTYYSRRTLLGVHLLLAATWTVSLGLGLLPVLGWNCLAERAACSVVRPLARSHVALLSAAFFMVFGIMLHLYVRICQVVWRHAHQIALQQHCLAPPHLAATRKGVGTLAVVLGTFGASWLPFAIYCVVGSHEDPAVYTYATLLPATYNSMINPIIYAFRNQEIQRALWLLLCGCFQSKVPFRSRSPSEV
Conditions: not given
(In TR-FRET formats the signal depends on donor and acceptor labels being close together.)
For `CCNc1nc2cnccc2nc1N1CCC(Oc2ccc(OC)cc2F)CC1`, the negative-log IC50 (pIC50) is 7.41.
Same read-out and setting: with `CS(=O)(=O)c1ccc(C(=O)N2CCN(c3nc4ccccc4nc3NC3CC3)CC2)cc1` the figure was 6.28; with `O=C(c1ccc(Cl)c(Cl)c1)N1CCN(c2nc3ccccc3nc2NC2CC2)CC1`, 4.10.
On the same count and under the same terms, under `O=C(c1cc(Cl)ccc1Cl)N1CCN(c2nc3ccccc3nc2NC2CC2)CC1` stands 5.18; under `N#Cc1ccc2nc(NC3CC3)c(N3CCC(Cc4ccc(F)cc4F)CC3)nc2c1`, 7.19.
Regarding `CC(C)Nc1cc(Cl)cc(C(=O)C2CCN(c3nc4ccc(C#N)cc4nc3NC(C)C)CC2)c1`, the negative-log IC50 (pIC50) is 6.56.
Still for that read-out and setting: with `COc1cccc(CN2CCN(c3nc4cnncc4nc3NC(C)C)CC2)c1` the figure was 7.36.
Regarding `CC(C)Nc1nc2cc(C#N)ncc2nc1N1CCC(C(=O)c2cc(F)cc(F)c2)CC1`, the pIC50 is 7.55.
In the case of `CC(C)Nc1nc2cc(C(=O)N(C)C)ncc2nc1N1CCC(C(=O)c2cc(F)cc(F)c2)CC1`, the negative-log IC50 (pIC50) was 7.80.
On the same count and under the same terms, under `CC(C)Nc1nc2cnncc2nc1N1CCC(Oc2ccc(C#N)cc2F)CC1` stands 7.14.
Same read-out and setting: with `CC(C)Nc1nc2cnncc2nc1N1CCC(Oc2ccc(OCF)cc2F)CC1` the figure was 8.10.
Still for that read-out and setting: with `Cc1cc2nc(NC3CC3)c(N3CCC(S(=O)(=O)c4ccc(F)cc4)CC3)nc2cn1` the figure was 7.03.
